Key:
[1] = tested on: colon cancer cell line HT29; assay: Cell survival assay (crystal violet); assay type: cell-based, human; conditions: FN1-8 even at higher doses (50 μM), data not shown
Protocol: (§1) Typically, the small molecule compounds of the present invention were dissolved in DMSO at a concentration of 30 mM. The small molecule compounds were then tested under cell culture conditions at different concentrations ranging from 0, 10, 30, 50, to 100 uM. To determine cell survival after treatment, the cells were incubated with the small molecule compounds in 6-well plates for about 3 days. After removal of the cell culture medium, 1-ml of 0.5% crystal violet solution (prepared in 20% ethanol and 20% methanol) was added to stain the cells for 5 min. Then the crystal violet solution was rinsed clean with tap water. Cell survival was estimated based on the density of crystal stained plates.

[2] = tested on: NSCLC cell lines H460, H838, H1975, H1650, and H1703; assay: Cell survival assay (crystal violet); assay type: cell-based, human; conditions: for cell killing: data not shown
Protocol: as §1

[3] = tested on: hedgehog pathway in HT29 cells; assay: Semi-quantitative RT-PCR of Hedgehog pathway genes; assay type: cell-based, human; conditions: data not shown
Protocol: Total RNA from cell lines or tissue samples was isolated using Qiagen RNeasy Mini Kit (Valencia, Calif.). RT-PCR was performed in GeneAmp PCR system 2700 (Applied Biosystems, Foster City, Calif.) using One-step RT-PCR Kit from Invitrogen Life Technologies (Carlsbad, Calif.). Primers for RT-PCR were obtained from Operon Technologies Inc. (Alameda, Calif.). Primer sequences for amplifying different genes in Hedgehog and Wnt signaling pathways are listed in the table below (Table 1; F, forward primer; R, reverse primer). The expected size of the PCR product is indicated for each primer pair. GAPDH was used as internal control.

[4] = tested on: Normal renal cells; assay: Apoptosis analysis (Annexin V FITC, flow cytometry); assay type: cell-based, human
Protocol: (§2) Apoptosis was analyzed by using an Annexin V FITC Apoptosis Detection Kit (Biosource, Camarillo, Calif.), according to the manufacturer's protocol. After treatment with different small molecule compounds at various concentrations for about 3 days, cells were harvested by trypsinization, stained and immediately analyzed by flow cytometry (FACScan; Decton Dickinson, Franklin Lake, N.J.). Early apoptotic cells with exposed phosphatidylserine but intact cell membranes will bind to Annexin V-FITC, but not propidium iodide (PI). Cells in necrotic or late apoptotic stages will be labeled with both Annexin V-FITC and PI. “% apoptotic cells” or “% apoptosis” refers to the combined early and late apoptotic cells.
In addition, apoptosis induction after the treatment of different doses of FN1-5 (30 and 50 μM) or FN1-8 (10, 30, and 50 μM) in normal human renal cells was examined by flow cytometry.

[5] = tested on: L3.6s1 (pancreatic cancer); assay: as above; assay type: cell-based, human; conditions: 3 days
Protocol: as §2
(§3) Flow cytometry was also used to examine apoptosis induced by molecule compounds FN1-5 and FN1-8 in the human pancreatic cancer cell lines L3.6sl, Panc4.21, BxPC3, and CFPAC-1 cells. […] For example, app.

[6] = tested on: Panc4.21 (pancreatic cancer); assay: as above; assay type: cell-based, human; conditions: 3 days
Protocol: as §2, §3

[7] = tested on: CFPAC-1 (pancreatic cancer); assay: as above; assay type: cell-based, human; conditions: 3 days
Protocol: as §2, §3

[8] = tested on: BxPC3 (pancreatic cancer); assay: as above; assay type: cell-based, human; conditions: 3 days
Protocol: as §2, §3

[9] = tested on: Colon Cancer HT29 tumor; assay: Mouse Xenograft Model (Colon Cancer HT29); assay type: in vivo
Protocol: The small molecule compound FN1-8 was tested in vivo in the mouse xenograft model bearing human cancer cells. Briefly, female athymic nude mice strain NCRNU-M (5-10 weeks old, 20-25 grams in weight; Taconic, Germantown, N.Y.) was maintained in pathogen-free conditions. Three human cancer cell lines: NSCLC H460, melanoma LOX, (both showing Gli3 activation), and colon cancer HT29 (no Gli3 activation, as a negative control), were used. Ten mice were used in each group and injected s.c. with 3×10^6 cancer cells in the dorsal area in a volume of 100 μl. After inoculation, human cancer cells were allowed to grow in mice for 7 days to become visible tumor nodules. Animals were then injected with small molecule compound FN1-8 at a dose of 50 mg/kg body weight (1 mg/mouse per day). DMSO alone was used as control. The compounds and controls were adjusted in 40 ul volume for i.p. injection in the abdomens of the mice. […] Tumor size was measured every three days, and tumor volumes were calculated using width (x) and length (y) (x^2y/2, where x<y). […]
In vivo efficacy study of small molecule compound FN1-8 were also performed using a negative Mouse Xenograft Model (Colon Cancer HT29). […] Tumor size was measured with a caliper every three days. Tumor volumes were calculated using the equation x^2y (where x<y). […]

[10] = tested on: LnCAP (prostate cancer); assay: Apoptosis analysis (Annexin V FITC, flow cytometry); assay type: cell-based, human; conditions: 3 days
Protocol: as §2
Flow cytometry was also used to examine apoptosis induced by molecule compounds FN1-5 and FN1-8 in LnCAP cells. […] For example, app.

Structure (SMILES) | cell killing [1] | cell killing [2] | modulation of hedgehog pathway (RT-PCR) [3] | % of apoptotic cells ([4]; 30 μM) [%] | % of apoptotic cells ([4]; 50 μM) [%] | % of apoptotic cells ([5]; L3.6s1, 30 μM) [%] | % of apoptotic cells ([5]; L3.6s1, 50 μM) [%] | % of apoptotic cells ([6]; Panc4.21, 30 μM) [%] | % of apoptotic cells ([6]; Panc4.21, 50 μM) [%] | % of apoptotic cells ([7]; CFPAC-1, 30 μM) [%] | % of apoptotic cells ([7]; CFPAC-1, 50 μM) [%] | % of apoptotic cells ([8]; BxPC3, 30 μM) [%] | % of apoptotic cells ([8]; BxPC3, 50 μM) [%] | % of apoptotic cells ([10]; 30 μM) [%] | % of apoptotic cells ([10]; 50 μM) [%] | also measured
O=C(NCCCCCO)C1C(c2ccccc2)=NN(c2ccccc2)C1c1ccccc1 (stereo not shown) [FN1-5, N-(5-Hydroxypentyl)-1,3,5-triphenyl-4,5-dihydro-pyrazole-4-carboxyamide] | dramatic cell killing | dramatic cell killing | no noticeable changes | 5.6 | 6.6 | 27.5 | 44.8 | 9.3 | 10.3 | 17.4 | 30.6 | 11.2 | 30.0 | 7.7 | 16.3 | apoptosis induction ([6]; Panc4.21, 30 and 50 μM): did not seem to induce apoptosis; tumor weight ([9]; 15 mg/kg daily 2×6 days then 30 mg/kg daily 1×6 days i.p., 43 days after inoculation): slightly decreased the tumor weight
O=C(NCCc1ccc(O)cc1)C1C(c2ccccc2)=NN(c2ccccc2)C1c1ccccc1 (stereo not shown) [FN1-8, N-(2-(4-Hydroxyphenyl)ethyl)-1,3,5-triphenyl-4,5-dihydro-pyrazole-4-carboxyamide] | no cell killing | dramatic cell killing | no noticeable changes | 4.1 | 6.2 | 25.1 | 45.7 | 10.6 | 23.4 | 15.0 | 19.8 | 20.4 | 77.4 | 11.0 | 41.5 | cell killing potency compared with FN1-5 ([2]; same concentrations): more potent than FN1-5; % of apoptotic cells ([4]; 10 μM): 3.1%; % of apoptotic cells ([5]; L3.6s1, 10 μM): 12.8%; % of apoptotic cells ([6]; Panc4.21, 10 μM): 11.2%; % of apoptotic cells ([7]; CFPAC-1, 10 μM): 15.4%; % of apoptotic cells ([8]; BxPC3, 10 μM): 11.4%; tumor growth ([9]; 50 mg/kg i.p. daily for 2×6 days): not affected; % of apoptotic cells ([10]; 10 μM): 6.9%
